# Values quoted from earlier work, collected in US20090255536A1, “Biofilm-Inhibiting Catheters and Tubings” (priority 2008, published 2009).
# Assays:
# [1] = test system: cultured human dermal fibroblasts; details: gNO at 200 ppm for extended periods of time
# Pseudomonas aeruginosa = details: topical exogenous gNO at 200 ppm for extended periods of time
# Staphylococcus aureus = details: topical exogenous gNO at 200 ppm for extended periods of time
# Escherichia coli = details: topical exogenous gNO at 200 ppm for extended periods of time
# Group B Streptococcus = details: topical exogenous gNO at 200 ppm for extended periods of time
# [2] = test system: S. aureus and P. aeruginosa; details: exogenous gNO at 200 ppm
# Candida albicans = details: topical exogenous gNO at 200 ppm for extended periods of time
structure (smiles),measurement,setting,value
"[N]=O [gNO, nitric oxide]",cytotoxic effects on cultured human dermal fibroblasts,[1],without any cytotoxic effects
same,growth of Pseudomonas aeruginosa,Pseudomonas aeruginosa,inhibited and prevented the growth
same,growth of Staphylococcus aureus,Staphylococcus aureus,inhibited and prevented the growth
same,growth of Escherichia coli,Escherichia coli,inhibited and prevented the growth
same,growth of Group B Streptococcus,Group B Streptococcus,inhibited and prevented the growth
same,time to clear nosocomial pneumonia caused by microbial pathogens,[2],about 6 hours
same,growth of Candida albicans,Candida albicans,inhibited and prevented the growth
